Measurements reported in patent publication EP1551873B1, “AGONISTS AND ANTAGONISTS OF THE HUMAN ODORANT RECEPTOR OR17-4 AND USES THEREOF” (Symrise AG, priority 2002, dated 2004).

Tested on: menschliche Nase
Assay: Odour perception test on about 100 human subjects (agonist, antagonist, agonist again)
Assay type: in vivo
Description: An ca. 100 Probanden wurde die Wirkung des Agonisten (Bourgeonal, "Duft A") und des Antagonisten (n-Undecanal, "Duft B") getestet. Dabei wurde zuerst an Duft A (1:100 verdünnt) gerochen, dann wurde in kurzem zeitlichen Abstand (1 - 3 s) an Duft B (ebenfalls 1:100 verdünnt) gerochen, anschließend wurde direkt wieder an Duft A gerochen. Die Probanden wurden nach ihrem Riecheindruck befragt: • Alle 100 Probanden konnten beim jeweils ersten Riechen spezifisch Duft A und B wahrnehmen und unterscheiden. Ca. 90 der 100 Testpersonen beschrieben, dass beim zweiten Riechen an Duft A kein Dufteindruck ausgelöst wurde. Nach ca. 1 Minute war Duft A bereits wieder riechbar.

CCCCCCCCCCC=O [n-Undecanal]
Testpersonen ohne Dufteindruck beim zweiten Riechen an Duft A (Duft B 1:100 sniffed 1 - 3 s after Duft A 1:100, then Duft A again): Ca. 90 der 100 Testpersonen | Zeit, nach der Duft A wieder riechbar war (after sniffing Duft B): ca. 1 Minute
